PMC10630452, “The tumor-enriched small molecule gambogic amide suppresses glioma by targeting WDR1-dependent cytoskeleton remodeling” (Signal Transduction and Targeted Therapy, 2023)

Assays:
[1] = tested on: PDCs; experiment: Apoptosis assay (annexin V/PI flow cytometry); format: cell-based, human; conditions: 4 h, varying concentrations
Experimental: An apoptosis detection kit (KeyGEN BioTECH) was used for the PDC apoptosis assay. After treatment with different concentrations of GA-amide, cells were collected and resuspended in 100 µL of binding buffer with 1 µl FITC Annexin V and 1 µl PI for 15 min at room temperature in the dark. The cell suspensions were analyzed by flow cytometry within 1 h.

[2] = tested on: WDR1 knockout T2-4 and T12-1 cells; experiment: Cell viability of WDR1 knockout PDCs; format: cell-based, human; conditions: WDR1 knockout T2-4 and T12-1 versus sg-NC
Experimental: The data are representative of 3 wells, scale bar: 500 μm. j Statistical results of the recovery of invasion.
For cell transfection, we first inserted the full-length cDNA encoding WDR1 and the WDR1 sequence with mutation of the four interaction sites into pcDNA3.1. Then, 293T cells were transiently transfected with these plasmids using Lipofectamine 3000 (Invitrogen). For cell transduction, WDR1 knockout and WDR1-overexpressing PDCs were generated by lentiviral transduction and selected by 1 µg/mL puromycin. All sg-WDR1 sequences are listed as follows: sg-WDR1 #2: 5′-[…]-3′, sg-WDR1 #3: 5′-[…]-3′, sg-WDR1 #4: 5′-[…]-3′, sg-WDR1 #5: 5′-[…]-3′. For cell transduction, CFL1 or MYH9 knockdown PDCs were generated by lentiviral transduction and selected by 1 µg/mL puromycin. All shRNA sequences are listed as follows: shCFL1-1: […], shCFL1-2: […], shMYH9-1: GCAAACCTCGAGAAGGCAA, shMYH9-2: GAAGTCAGCTCCCTAAAGA.

[3] = Acute toxicity assay, mice serum biochemical indexes; format: in vivo
[4] = target: T1, WDR1 (Homo sapiens, UniProt O75083); experiment: Cellular thermal shift assay (CETSA) in T2-4 cells; format: cell-based; conditions: 3 µM, 1 h, 67°C–70°C
T1 construct: GA-amide protected WDR1 at different temperature gradients in the CETSA in T2-4 cells; endogenous in cells; host or cells: T2-4 patient-derived glioma cells
T1 sequence (O75083 whole entry): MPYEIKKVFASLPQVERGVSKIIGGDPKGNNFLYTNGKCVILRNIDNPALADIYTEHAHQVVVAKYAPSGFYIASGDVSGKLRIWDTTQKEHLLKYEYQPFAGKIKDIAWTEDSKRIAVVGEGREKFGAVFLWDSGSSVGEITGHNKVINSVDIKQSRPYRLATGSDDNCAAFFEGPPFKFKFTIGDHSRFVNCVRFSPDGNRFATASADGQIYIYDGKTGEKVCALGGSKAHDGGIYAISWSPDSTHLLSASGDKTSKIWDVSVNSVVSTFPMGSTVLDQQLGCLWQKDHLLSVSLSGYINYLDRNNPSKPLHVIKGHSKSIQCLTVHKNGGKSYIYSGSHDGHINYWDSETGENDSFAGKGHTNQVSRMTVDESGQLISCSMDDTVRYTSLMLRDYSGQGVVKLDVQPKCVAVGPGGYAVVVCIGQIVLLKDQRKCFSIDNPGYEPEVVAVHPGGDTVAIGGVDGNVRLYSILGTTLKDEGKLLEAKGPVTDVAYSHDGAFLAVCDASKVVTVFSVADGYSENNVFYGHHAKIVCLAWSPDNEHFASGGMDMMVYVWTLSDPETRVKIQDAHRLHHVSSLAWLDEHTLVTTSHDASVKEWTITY
Experimental: The cellular thermal shift assay (CETSA) has been described previously. Briefly, cells were incubated with DMSO or 3 µM GA-amide for 1 h and washed with PBS three times. Then, the cells were suspended in 1 mL of PBS and divided into equal volumes, followed by heating for 3 min at the indicated temperatures. After heating, three snap freeze–thaw cycles were applied to lyse the cells, and western blotting was performed as previously described.

[5] = tested on: glioma-related cells (PDCs, GCs and GSCs); experiment: IC50 assay (MTS cell viability), span over cell lines; format: cell-based; conditions: span over PDC, GC and GSC lines
Experimental: Four PDC lines (T12-1, T12-2, T2-4, T19-1) obtained from the Beijing Tiantan Hospital[53] and three GSC lines (GSC2, U87MG-SLC, U251-SLC) were established and verified in our previous work.[17] Two GCSC lines were kindly provided by Dr. Ran.[54] These cell lines were cultured in neurobasal medium (Gibco) containing 2% B27 (Gibco), 1% 100 × Antibiotic-Antimycotic (Gibco), 2 mmol/L L-glutamine (catalog SH30034.01, HyClone), 20 ng/mL bFGF (catalog 100-18B-50UG, PeproTech), 20 ng/mL EGF (catalog AF-100-15-100UG, PeproTech), and 10 μg/mL heparin (Sigma‒Aldrich). H1-NSCs obtained from D.Q. Pei’s laboratory (Guangzhou Institutes of Biomedicine and Health, Chinese Academy of Sciences, Guangzhou, China), were cultured in the same medium as the PDCs, with the addition of 1% N-2 supplement (Gibco, Thermo Fisher Scientific). The human astrocyte (HA) cell line was purchased from ScienCell and cultured in commercial astrocyte medium (catalog 1801, ScienCell) supplemented with 1% AGS (ScienCell), 2% FBS (ScienCell) and 1% P/S solution (ScienCell). […]
Cells were seeded in 96-well plates and treated with 0, 0.03, 0.1, 0.3, 1, 3, 10, or 30 μM GA-amide (Santa Cruz) in triplicate. After 48 h of incubation, cell viability was quantified using the MTS assay, and the GA-amide cytotoxicity curve was estimated using GraphPad Prism.

## CC(C)=CCC[C@]1(C)C=Cc2c(O)c3c(c(CC=C(C)C)c2O1)O[C@]12C(=C[C@@H]4CC1C(C)(C)O[C@@]2(C/C=C(/C)C(N)=O)C4=O)C3=O [GA-amide, gambogic amide]
[1]
  apoptosis (annexin V/PI): significantly induced the apoptosis of PDCs in a dose-dependent manner
[2]
  suppression of cell proliferation in WDR1 knockout cells: decreased suppressive effects of GA-amide on cell proliferation
[3]; 1mg/kg one-time i.v.
  ALB (albumin): 19.5 ± 2.4 g/L
  ALP (alkaline phosphatase): 214±36 U/L
  ALT (alanine aminotransferase): 26±2 U/L
  AST (aspartate aminotransferase): 99±20 U/L
  CA (calcium): 2.53 ± 0.12 mmol/L
  CHE (cholinesterase): 7909±1092 U/L
  CK (creatine kinase): 910±503 U/L
  CRE (creatinine): 11.1 ± 1.1 µmol/L
  Cl: 112.0 ± 2.2 mmol/L
  GGT (Gammagliutamyltranspherase): -1±1 U/L
  GLU (glucose): 8.21 ± 3.50 mmol/L
  K: 5.99 ± 0.84 mmol/L
  NA: 147.4 ± 1.5 mmol/L
  TBA (total bile acid): 8.6 ± 6.4 µmol/L
  TBIL (total bilirubin): 3.3 ± 0.5 µmol/L
  TCHO (total cholesterol): 4.34 ± 1.10 mmol/L
  TG (triglyceride): 1.30 ± 0.29 mmol/L
  TP (total protein): 54.5 ± 6.7 g/L
  UREA: 8.11 ± 1.58 mmol/L
[3]; 10mg/kg one-time i.v.
  ALB (albumin): 20.0 ± 0.9 g/L
  ALP (alkaline phosphatase): 217±33 U/L
  ALT (alanine aminotransferase): 37±12 U/L
  AST (aspartate aminotransferase): 113±22 U/L
  CA (calcium): 2.54 ± 0.07 mmol/L
  CHE (cholinesterase): 7828±721 U/L
  CK (creatine kinase): 1157±539 U/L
  CRE (creatinine): 10.9 ± 0.6 µmol/L
  Cl: 111.5 ± 1.7 mmol/L
  GGT (Gammagliutamyltranspherase): -1±1 U/L
  GLU (glucose): 5.61 ± 0.60 mmol/L
  K: 5.97 ± 0.33 mmol/L
  NA: 147.7 ± 2.0 mmol/L
  TBA (total bile acid): 7.9 ± 4.5 µmol/L
  TBIL (total bilirubin): 3.8 ± 1.0 µmol/L
  TCHO (total cholesterol): 4.75 ± 0.93 mmol/L
  TG (triglyceride): 1.62 ± 0.48 mmol/L
  TP (total protein): 55.5 ± 1.8 g/L
  UREA: 8.62 ± 1.32 mmol/L
[4]
  WDR1 thermal stabilization (western blot band): the band persisted in the cells treated with GA-amide
[5]
  IC50: 133 to 399 nM
